Measurements reported in ChEMBL document CHEMBL1681651, “A broad spectrum anticancer nucleoside with selective toxicity against human colon cells in vitro” (2011).

Assays:
Assay type in all cases: functional
ACHN [1] = experiment: Growth inhibition of human ACHN cells assessed as cell growth at 1 uM after 48 hrs by SRB assay; settings: read-out: Activity
TK-10 [2] = experiment: Growth inhibition of human TK10 cells assessed as cell growth at 1 uM after 48 hrs by SRB assay; settings: TK-10, 48 h, read-out: Activity
[3] = Growth inhibition of human […] cells assessed as cell growth at 10 uM after 48 hrs by SRB assay; settings: read-out: Activity
HOP-92 = experiment: Growth inhibition of human HOP92 cells assessed as cell growth at 10 uM after 48 hrs by SRB assay; settings: HOP-92, 48 h, read-out: Activity
SF-268 [4] = experiment: Growth inhibition of human SF268 cells assessed as cell growth at 10 uM after 48 hrs by SRB assay; settings: SF-268, 48 h, read-out: Activity
HCT-15 = experiment: Growth inhibition of human HCT15 cells after 48 hrs by […] growth inhibition assay; settings: HCT-15, 48 h
SF-268 [5] = experiment: Growth inhibition of human SF268 cells after 48 hrs by […] growth inhibition assay; settings: SF-268, 48 h
ACHN [6] = experiment: Growth inhibition of human ACHN cells after 48 hrs by […] growth inhibition assay
RXF 393 = experiment: Growth inhibition of human RXF393 cells after 48 hrs by […] growth inhibition assay; settings: RXF 393, 48 h
TK-10 [7] = experiment: Growth inhibition of human TK10 cells after 48 hrs by […] growth inhibition assay; settings: TK-10, 48 h
NCI-H226 = experiment: Growth inhibition of human NCI-H226 cells assessed as cell growth at 0.1 uM after 48 hrs by SRB assay; settings: NCI-H226, 48 h, read-out: Activity
NCI-H23 [8] = experiment: Growth inhibition of human NCI-H23 cells assessed as cell growth at 0.1 uM after 48 hrs by SRB assay; settings: NCI-H23, 48 h, read-out: Activity
HCC 2998 = experiment: Growth inhibition of human HCC2998 cells assessed as cell growth at 0.1 uM after 48 hrs by SRB assay; settings: HCC 2998, 48 h, read-out: Activity
U-251 = experiment: Growth inhibition of human U251 cells assessed as cell growth at 0.1 uM after 48 hrs by SRB assay; settings: U-251, 48 h, read-out: Activity
SK-MEL-5 [9] = experiment: Growth inhibition of human SK-MEL-5 cells assessed as cell growth at 0.1 uM after 48 hrs by SRB assay; settings: SK-MEL-5, 48 h, read-out: Activity
LOX IMVI = experiment: Growth inhibition of human LOXIMVI cells assessed as cell growth at 10 uM after 48 hrs by SRB assay; settings: read-out: Activity
SK-MEL-5 [10] = experiment: Growth inhibition of human SK-MEL-5 cells assessed as cell growth at 10 uM after 48 hrs by SRB assay; settings: SK-MEL-5, 48 h, read-out: Activity
A498 = experiment: Growth inhibition of human A498 cells assessed as cell growth at 10 uM after 48 hrs by SRB assay; settings: A498, 48 h, read-out: Activity
UO-31 [11] = experiment: Growth inhibition of human UO31 cells assessed as cell growth at 10 uM after 48 hrs by SRB assay; settings: UO-31, 48 h, read-out: Activity
MDA-MB-435 = experiment: Growth inhibition of human MDA-MB-435 cells assessed as cell growth at 10 uM after 48 hrs by SRB assay; settings: MDA-MB-435, 48 h, read-out: Activity
IGROV-1 = experiment: Growth inhibition of human IGROV1 cells assessed as cell growth at 100 uM after 48 hrs by SRB assay; settings: IGROV-1, 48 h, read-out: Activity
786-0 = experiment: Growth inhibition of human 786-0 cells assessed as cell growth at 100 uM after 48 hrs by SRB assay; settings: 786-0, 48 h, read-out: Activity
CAKI-1 = experiment: Growth inhibition of human Caki1 cells assessed as cell growth at 100 uM after 48 hrs by SRB assay; settings: CAKI-1, 48 h, read-out: Activity
TK-10 [12] = experiment: Growth inhibition of human TK10 cells assessed as cell growth at 100 uM after 48 hrs by SRB assay; settings: TK-10, 48 h, read-out: Activity
UO-31 [13] = experiment: Growth inhibition of human UO31 cells assessed as cell growth at 100 uM after 48 hrs by SRB assay; settings: UO-31, 48 h, read-out: Activity
NCI/ADR-RES = experiment: Growth inhibition of human NCI/ADR-RES cells assessed as cell growth at 100 uM after 48 hrs by SRB assay; settings: read-out: Activity
BT-549 = experiment: Growth inhibition of human BT549 cells assessed as cell growth at 100 uM after 48 hrs by SRB assay; settings: BT-549, 48 h, read-out: Activity
M14 = experiment: Growth inhibition of human M14 cells assessed as cell growth at 1 mM after 48 hrs by SRB assay; settings: M14, 48 h, read-out: Activity
SK-MEL-2 = experiment: Growth inhibition of human SK-MEL-2 cells assessed as cell growth at 1 mM after 48 hrs by SRB assay; settings: SK-MEL-2, 48 h, read-out: Activity
UACC-62 = experiment: Growth inhibition of human UACC62 cells assessed as cell growth at 1 mM after 48 hrs by SRB assay; settings: UACC-62, 48 h, read-out: Activity
ACHN [14] = experiment: Growth inhibition of human ACHN cells assessed as cell growth at 1 mM after 48 hrs by SRB assay; settings: read-out: Activity
TK-10 [15] = experiment: Growth inhibition of human TK10 cells assessed as cell growth at 1 mM after 48 hrs by SRB assay; settings: TK-10, 48 h, read-out: Activity
NCI-H23 [16] = experiment: Growth inhibition of human NCI-H23 cells assessed as cell growth at 1 uM after 48 hrs by SRB assay; settings: NCI-H23, 48 h, read-out: Activity
Malme-3M = experiment: Growth inhibition of human MALME-3M cells assessed as cell growth at 1 uM after 48 hrs by SRB assay; settings: read-out: Activity
OVCAR-8 = experiment: Growth inhibition of human OVCAR8 cells assessed as cell growth at 1 uM after 48 hrs by SRB assay; settings: OVCAR-8, 48 h, read-out: Activity
[17] = read-out: LC50 (the source's name)
[18] = read-out: pLC50 (the source's name) (converted)

SMILES: CNC(=O)NC[C@H]1O[C@@H](n2cnc3c(NC(=O)Nc4ccccc4)ncnc32)[C@H](O[Si](C)(C)C(C)(C)C)[C@@H]1O[Si](C)(C)C(C)(C)C
- growth at 1 µM (ACHN [1]): 108%
- growth at 1 µM (TK-10 [2]): 113%
- growth at 10 µM [3]: 98%
- growth at 10 µM (HOP-92): 69%
- growth at 10 µM (SF-268 [4]): 102%
- GI50 (HCT-15; read-out: GI50): 3.62 µM
- CC50 (HCT-15; [17]): > 100 µM
- TGI (HCT-15; read-out: TGI): > 100 µM
- GI50 (HCT-15; read-out: pGI50 (converted)): 3.63 µM
- CC50 (HCT-15; [18]): > 100 µM
- TGI (HCT-15; read-out: pTGI): > 100 µM
- GI50 (SF-268 [5]; read-out: GI50): 3.58 µM
- CC50 (SF-268 [5]; [17]): > 100 µM
- TGI (SF-268 [5]; read-out: TGI): 14 µM
- GI50 (SF-268 [5]; read-out: pGI50 (converted)): 3.55 µM
- CC50 (SF-268 [5]; [18]): > 100 µM
- TGI (SF-268 [5]; read-out: pTGI (converted)): 14.1 µM
- GI50 (ACHN [6]; read-out: GI50): 3.83 µM
- CC50 (ACHN [6]; [17]): > 100 µM
- TGI (ACHN [6]; read-out: TGI): > 100 µM
- GI50 (ACHN [6]; read-out: pGI50 (converted)): 3.8 µM
- CC50 (ACHN [6]; [18]): > 100 µM
- TGI (ACHN [6]; read-out: pTGI): > 100 µM
- GI50 (RXF 393; read-out: GI50): 2.14 µM
- CC50 (RXF 393; [17]): 7.5 µM
- TGI (RXF 393; read-out: TGI): 4.01 µM
- GI50 (RXF 393; read-out: pGI50 (converted)): 2.14 µM
- CC50 (RXF 393; [18]): 7.41 µM
- TGI (RXF 393; read-out: pTGI (converted)): 3.98 µM
- GI50 (TK-10 [7]; read-out: GI50): 4.29 µM
- CC50 (TK-10 [7]; [17]): > 100 µM
- TGI (TK-10 [7]; read-out: TGI): 72.6 µM
- GI50 (TK-10 [7]; read-out: pGI50 (converted)): 4.27 µM
- CC50 (TK-10 [7]; [18]): > 100 µM
- TGI (TK-10 [7]; read-out: pTGI (converted)): 72.4 µM
- growth at 0.1 µM (NCI-H226): 102%
- growth at 0.1 µM (NCI-H23 [8]): 100%
- growth at 0.1 µM (HCC 2998): 100%
- growth at 0.1 µM (U-251): 102%
- growth at 0.1 µM (SK-MEL-5 [9]): 102%
- growth at 10 µM (LOX IMVI): 98%
- growth at 10 µM (SK-MEL-5 [10]): 89%
- growth at 10 µM (A498): 90%
- growth at 10 µM (UO-31 [11]): 84%
- growth at 10 µM (MDA-MB-435): 97%
- growth at 100 µM (IGROV-1): -12%
- growth at 100 µM (786-0): -83%
- growth at 100 µM (CAKI-1): -11%
- growth at 100 µM (TK-10 [12]): 14%
- growth at 100 µM (UO-31 [13]): -2%
- growth at 100 µM (NCI/ADR-RES): 10%
- growth at 100 µM (BT-549): -10%
- growth at 1000 µM (M14): -52%
- growth at 1000 µM (SK-MEL-2): -67%
- growth at 1000 µM (UACC-62): -39%
- growth at 1000 µM (ACHN [14]): 2%
- growth at 1000 µM (TK-10 [15]): -2%
- growth at 1 µM (NCI-H23 [16]): 106%
- growth at 1 µM (Malme-3M): 98%
- growth at 1 µM (OVCAR-8): 106%

SMILES: CNC(=O)OC[C@H]1O[C@@H](n2cnc3c(NC(=O)Nc4ccccc4)ncnc32)[C@H](O[Si](C)(C)C(C)(C)C)[C@@H]1O[Si](C)(C)C(C)(C)C
- growth at 10 µM [3]: 88.1%
- growth at 10 µM (HOP-92): 54.7%
- growth at 10 µM (SF-268 [4]): 85.2%
- growth at 10 µM (LOX IMVI): 87.4%
- growth at 10 µM (SK-MEL-5 [10]): 101%
- growth at 10 µM (A498): 98.4%
- growth at 10 µM (UO-31 [11]): 106%
- growth at 10 µM (MDA-MB-435): 94.9%
